Activity calls are given as the source filed them. The calls are words filed in the database; no cut-off is given here. Where a SMILES comes first, the peptide text is derived from it. [ ]: non-standard residue; d: D form. The star is where a group is joined. Octanoyl = CCCCCCCC(=O)*; Dap = NC[C@H](N)C(=O)O
Tests used:
[1] = molecular target: T1, Membrane-bound ghrelin O-acyltransferase MBOAT4 (Mus musculus) (UniProt P0C7A3); assay: Inhibition of His10-tagged mouse GOAT expressed in baculovirus infected Sf9 cells assessed as reduction in specific acyl transfer from tritiated-octanoyl CoA to recombinant His-tagged pro-ghrelin at 100 uM
T1 sequence (whole entry): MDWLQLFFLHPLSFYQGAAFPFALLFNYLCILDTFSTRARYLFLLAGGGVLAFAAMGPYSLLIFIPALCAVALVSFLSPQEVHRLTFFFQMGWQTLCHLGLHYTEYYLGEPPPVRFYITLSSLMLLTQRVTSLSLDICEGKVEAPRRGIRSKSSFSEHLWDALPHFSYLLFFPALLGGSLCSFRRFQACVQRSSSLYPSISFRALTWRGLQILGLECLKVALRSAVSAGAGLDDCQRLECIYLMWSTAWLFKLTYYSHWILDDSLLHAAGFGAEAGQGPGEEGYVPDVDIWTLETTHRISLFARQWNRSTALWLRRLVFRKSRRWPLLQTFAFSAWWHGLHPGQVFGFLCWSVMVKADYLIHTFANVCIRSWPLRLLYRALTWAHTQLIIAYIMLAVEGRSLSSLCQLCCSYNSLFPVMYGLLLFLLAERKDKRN

[2] = molecular target: T1, Membrane-bound ghrelin O-acyltransferase MBOAT4 (Mus musculus); assay: Inhibition of His10-tagged mouse GOAT expressed in baculovirus infected Sf9 cells assessed as reduction in specific acyl transfer from tritiated-octanoyl CoA to recombinant His-tagged pro-ghrelin
[3] = molecular target: T1, Membrane-bound ghrelin O-acyltransferase MBOAT4 (Mus musculus); assay: Inhibition of His10-tagged mouse GOAT expressed in baculovirus infected Sf9 cells assessed as reduction in specific acyl transfer from tritiated-octanoyl CoA to recombinant His-tagged pro-ghrelin at 500 uM
[4] = molecular target: T2, Membrane-bound ghrelin O-acyltransferase MBOAT4 (Homo sapiens) (UniProt Q96T53); assay: Inhibition of GOAT (unknown origin) expressed in intact rat INS1 cells co-expressing pre-proghrelin incubated for 24 hrs; type: cell-based
T2 sequence (whole entry): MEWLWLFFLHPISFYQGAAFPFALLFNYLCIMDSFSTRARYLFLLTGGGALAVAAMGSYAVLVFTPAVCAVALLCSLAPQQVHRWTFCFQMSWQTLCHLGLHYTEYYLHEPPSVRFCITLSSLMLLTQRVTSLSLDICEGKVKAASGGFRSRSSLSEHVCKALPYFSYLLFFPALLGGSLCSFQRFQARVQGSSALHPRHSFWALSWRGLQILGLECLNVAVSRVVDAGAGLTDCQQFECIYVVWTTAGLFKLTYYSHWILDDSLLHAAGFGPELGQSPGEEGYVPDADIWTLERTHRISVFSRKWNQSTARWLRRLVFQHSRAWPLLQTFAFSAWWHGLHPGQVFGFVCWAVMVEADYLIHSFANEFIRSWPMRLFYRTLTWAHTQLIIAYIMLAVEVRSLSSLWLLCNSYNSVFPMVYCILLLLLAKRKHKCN

[5] = molecular target: T1, Membrane-bound ghrelin O-acyltransferase MBOAT4 (Mus musculus); assay: Inhibition of His10-tagged mouse GOAT expressed in baculovirus infected Sf9 cells assessed as reduction in specific acyl transfer from tritiated-octanoyl CoA to recombinant His-tagged pro-ghrelin at <500 uM

Row | Compound | inhibition [2] | other results
1 | CCCCCCCC(O)CC[C@H](NC(=O)OCc1ccccc1)C(=O)N[C@H](COC)Cc1ccccc1 (some centres not stated) | – | inhibition [1]: Active
2 | CCCCCCCC(C)(O)/C=C/[C@@H](NC(=O)OCc1ccccc1)C(=O)OC (some centres not stated) | Active | inhibition [3]: Active
3 | CCCCCCCC(C)(O)/C=C/[C@H](NC(=O)C(C)(C)CO)C(=O)OC (some centres not stated) | inactive | –
4 | CCCCCCCC(C)(O)/C=C/CNC(=O)OCc1ccccc1 (configuration not stated) | Active | –
5 | CCC(C)(O)/C=C/[C@H](NC(=O)OCc1ccccc1)C(=O)OC (some centres not stated) | inactive | –
6 | CCCCCCCC(=O)CC[C@H](NC(=O)OCc1ccccc1)C(=O)OC | – | inhibition [1]: Active
7 | CCCCCCCC(O)/C=C/[C@H](NC(=O)OCc1ccccc1)C(=O)OC (some centres not stated) | – | inhibition [1]: Active; inhibition [5]: Active; inhibition [3]: Active
8 | CCCCCCCC(O)CC[C@H](NC(=O)C(C)(C)CO)C(=O)N[C@H](COC)Cc1ccccc1 (some centres not stated) | – | inhibition [5]: Active; inhibition [3]: Active
9 | CCCCCCC[S+]([O-])CC[C@H](NC(=O)OCc1ccccc1)C(=O)OC (some centres not stated) | Dose-dependent effect | –
10 | CCCCCCCC(O)CC[C@H](NC(=O)C(C)(C)CO)C(=O)OC (some centres not stated) | – | inhibition [3]: Active

The next lines start with results.

Row | inhibition [2] | Compound | other results
11 | inactive | CCCCCCCC(=O)NC[C@H](NC(=O)OCc1ccccc1)C(=O)OC | –
12 | Active | CCCCCCCC(C)(O)C/C=C(/NC(=O)OCc1ccccc1)C(=O)NC(C)C (configuration not stated) | –
13 | Dose-dependent effect | CCCCCCCC(=O)NC[C@H](NC(=O)[C@H](CO)NC(=O)CN)C(=O)N[C@@H](Cc1ccccc1)C(=O)N[C@@H](CC(C)C)C(N)=O (H-GS[Dap](Octanoyl)FL-NH2) | –
14 | Active | CCCCCCCC(C)(O)/C=C/[C@H](NC(=O)OCc1ccccc1)C(=O)NC(C)C (some centres not stated) | –
15 | Active | CCCCCCCC(C)(O)/C=C/[C@H](NC(=O)C(C)(C)CO)C(=O)N[C@@H](Cc1ccccc1)C(=O)N[C@@H](CC(C)C)C(N)=O (some centres not stated) | –
16 | Dose-dependent effect | CCCCCCCC(C)(O)/C=C/[C@H](NC(=O)OCc1ccccc1)C(=O)OC (some centres not stated) | inhibition [1]: Active; inhibition [4]: Active
